{"source": "paper PMC4392994", "about": "“Kinetic Characterization and Effect of Immobilized Thermostable β-Glucosidase in Alginate Gel Beads on Sugarcane Juice” (ISRN Biochemistry, 2014)", "test_system": "T1, β-glucosidase", "T1 construct": "recombinant, cloned and expressed in E. coli DH5alpha; extracellular, from culture supernatant; partially purified (ammonium sulfate, dialysis); EC 3.2.1.21", "test": "p-nitrophenol release at […] nm, Lineweaver-Burk plot", "assay_type": "biochemical, Bacillus subtilis", "conditions": "free enzyme, partially purified; acetate buffer 100 mM, pH 5.0, 60 °C, 30 min; 1–15 mM substrate", "data": [{"smiles": "O=[N+]([O-])c1ccc(O[C@@H]2O[C@H](CO)[C@@H](O)[C@H](O)[C@H]2O)cc1", "note": "[pNPG]", "values": [{"measurement": "Km", "value": 3.6, "unit": "mM"}]}]}
